Measured values: the NIST ThermoML archive (doi:10.1016/j.jct.2008.06.016)
± gives the expanded uncertainty stated by the source.

Test: molar heat capacity at constant pressure
Details: 101.33 kPa, Crystal, Small sample (50 mg) DSC

SMILES: NC(=O)c1ccccc1O [2-hydroxybenzamide]
- molar heat capacity at constant pressure (280.4 K): 124.1 ± 1.9 J/K/mol
- molar heat capacity at constant pressure (285.4 K): 126.3 ± 2 J/K/mol
- molar heat capacity at constant pressure (290.4 K): 128.7 ± 2 J/K/mol
- molar heat capacity at constant pressure (295.4 K): 130.9 ± 2 J/K/mol
- molar heat capacity at constant pressure (300.4 K): 133.1 ± 2.1 J/K/mol
- molar heat capacity at constant pressure (305.4 K): 135.6 ± 2.1 J/K/mol
- molar heat capacity at constant pressure (310.4 K): 138 ± 2.2 J/K/mol
- molar heat capacity at constant pressure (315.4 K): 140.5 ± 2.2 J/K/mol
- molar heat capacity at constant pressure (320.4 K): 142.9 ± 2.2 J/K/mol
- molar heat capacity at constant pressure (325.4 K): 145.5 ± 2.2 J/K/mol
- molar heat capacity at constant pressure (330.4 K): 148.1 ± 2.3 J/K/mol
- molar heat capacity at constant pressure (335.4 K): 150.5 ± 2.3 J/K/mol
- molar heat capacity at constant pressure (340.4 K): 153.1 ± 2.4 J/K/mol
- molar heat capacity at constant pressure (345.4 K): 155.6 ± 2.4 J/K/mol
- molar heat capacity at constant pressure (350.4 K): 158.2 ± 2.4 J/K/mol
- molar heat capacity at constant pressure (355.4 K): 160.6 ± 2.5 J/K/mol
- molar heat capacity at constant pressure (360.4 K): 163.3 ± 2.5 J/K/mol
- molar heat capacity at constant pressure (365.4 K): 165.6 ± 2.6 J/K/mol
- molar heat capacity at constant pressure (370.4 K): 168.1 ± 2.6 J/K/mol
- molar heat capacity at constant pressure (375.4 K): 170.3 ± 2.7 J/K/mol
- molar heat capacity at constant pressure (380.4 K): 172.9 ± 2.7 J/K/mol
- molar heat capacity at constant pressure (385.4 K): 175.4 ± 2.7 J/K/mol
- molar heat capacity at constant pressure (390.4 K): 177.9 ± 2.7 J/K/mol
- molar heat capacity at constant pressure (395.4 K): 180.6 ± 2.8 J/K/mol

SMILES: O=C(O)c1ccccc1O [2-hydroxybenzoic acid]
- molar heat capacity at constant pressure (280.4 K): 128.5 ± 2 J/K/mol
- molar heat capacity at constant pressure (285.5 K): 130 ± 2 J/K/mol
- molar heat capacity at constant pressure (290.5 K): 131.6 ± 2.1 J/K/mol
- molar heat capacity at constant pressure (295.4 K): 133.5 ± 2.1 J/K/mol
- molar heat capacity at constant pressure (300.4 K): 135.4 ± 2.1 J/K/mol
- molar heat capacity at constant pressure (305.4 K): 137.4 ± 2.2 J/K/mol
- molar heat capacity at constant pressure (310.4 K): 139.4 ± 2.2 J/K/mol
- molar heat capacity at constant pressure (315.4 K): 141.4 ± 2.2 J/K/mol
- molar heat capacity at constant pressure (320.4 K): 143.5 ± 2.2 J/K/mol
- molar heat capacity at constant pressure (325.4 K): 145.5 ± 2.2 J/K/mol
- molar heat capacity at constant pressure (330.4 K): 147.6 ± 2.3 J/K/mol
- molar heat capacity at constant pressure (335.4 K): 149.8 ± 2.3 J/K/mol
- molar heat capacity at constant pressure (340.4 K): 151.8 ± 2.3 J/K/mol
- molar heat capacity at constant pressure (345.4 K): 154.1 ± 2.4 J/K/mol
- molar heat capacity at constant pressure (350.4 K): 156.2 ± 2.4 J/K/mol
- molar heat capacity at constant pressure (355.4 K): 158.2 ± 2.4 J/K/mol
- molar heat capacity at constant pressure (360.4 K): 160.3 ± 2.5 J/K/mol
- molar heat capacity at constant pressure (365.4 K): 162.3 ± 2.5 J/K/mol
- molar heat capacity at constant pressure (370.4 K): 164.2 ± 2.6 J/K/mol
- molar heat capacity at constant pressure (375.4 K): 165.9 ± 2.6 J/K/mol
- molar heat capacity at constant pressure (380.4 K): 168 ± 2.6 J/K/mol
- molar heat capacity at constant pressure (385.4 K): 170.1 ± 2.7 J/K/mol
- molar heat capacity at constant pressure (390.4 K): 172.1 ± 2.7 J/K/mol
- molar heat capacity at constant pressure (395.5 K): 173.8 ± 2.7 J/K/mol
- molar heat capacity at constant pressure (400.5 K): 175.6 ± 2.7 J/K/mol
- molar heat capacity at constant pressure (405.5 K): 177.5 ± 2.7 J/K/mol

SMILES: O=C(O)c1cccc(O)c1 [3-hydroxybenzoic acid]
- molar heat capacity at constant pressure (280.4 K): 134.6 ± 2.1 J/K/mol
- molar heat capacity at constant pressure (285.5 K): 136.8 ± 2.1 J/K/mol
- molar heat capacity at constant pressure (290.5 K): 138.9 ± 2.2 J/K/mol
- molar heat capacity at constant pressure (295.4 K): 141.2 ± 2.2 J/K/mol
- molar heat capacity at constant pressure (300.4 K): 143.5 ± 2.2 J/K/mol
- molar heat capacity at constant pressure (305.4 K): 145.8 ± 2.2 J/K/mol
- molar heat capacity at constant pressure (310.4 K): 147.9 ± 2.3 J/K/mol
- molar heat capacity at constant pressure (315.4 K): 150.2 ± 2.3 J/K/mol
- molar heat capacity at constant pressure (320.4 K): 152.7 ± 2.3 J/K/mol
- molar heat capacity at constant pressure (325.5 K): 155 ± 2.4 J/K/mol
- molar heat capacity at constant pressure (330.5 K): 157.4 ± 2.4 J/K/mol
- molar heat capacity at constant pressure (335.5 K): 159.7 ± 2.5 J/K/mol
- molar heat capacity at constant pressure (340.5 K): 162.2 ± 2.5 J/K/mol
- molar heat capacity at constant pressure (345.5 K): 164.5 ± 2.6 J/K/mol
- molar heat capacity at constant pressure (350.4 K): 166.9 ± 2.6 J/K/mol
- molar heat capacity at constant pressure (355.4 K): 169.1 ± 2.7 J/K/mol
- molar heat capacity at constant pressure (360.4 K): 171.3 ± 2.7 J/K/mol
- molar heat capacity at constant pressure (365.4 K): 173.7 ± 2.7 J/K/mol
- molar heat capacity at constant pressure (370.4 K): 175.9 ± 2.7 J/K/mol
- molar heat capacity at constant pressure (375.4 K): 177.9 ± 2.7 J/K/mol
- molar heat capacity at constant pressure (380.4 K): 180.8 ± 2.8 J/K/mol
- molar heat capacity at constant pressure (385.4 K): 183.8 ± 2.8 J/K/mol
- molar heat capacity at constant pressure (390.5 K): 186.3 ± 2.9 J/K/mol
- molar heat capacity at constant pressure (395.5 K): 188.7 ± 2.9 J/K/mol
- molar heat capacity at constant pressure (400.5 K): 190.6 ± 3 J/K/mol
- molar heat capacity at constant pressure (405.5 K): 192.6 ± 3 J/K/mol
- molar heat capacity at constant pressure (410.5 K): 194.6 ± 3 J/K/mol
- molar heat capacity at constant pressure (415.5 K): 196.6 ± 3.1 J/K/mol
- molar heat capacity at constant pressure (420.5 K): 198.3 ± 3.1 J/K/mol
- molar heat capacity at constant pressure (425.5 K): 200.3 ± 3.1 J/K/mol
- molar heat capacity at constant pressure (430.5 K): 202.5 ± 3.2 J/K/mol
- molar heat capacity at constant pressure (435.5 K): 205 ± 3.2 J/K/mol
- molar heat capacity at constant pressure (440.5 K): 207.5 ± 3.2 J/K/mol
- molar heat capacity at constant pressure (445.5 K): 209.9 ± 3.2 J/K/mol
- molar heat capacity at constant pressure (450.5 K): 212.1 ± 3.3 J/K/mol
- molar heat capacity at constant pressure (455.5 K): 214.8 ± 3.3 J/K/mol
- molar heat capacity at constant pressure (460.4 K): 218.8 ± 3.4 J/K/mol

SMILES: O=C(O)c1ccc(O)cc1 [4-hydroxybenzoic acid]
- molar heat capacity at constant pressure (280.8 K): 138.9 ± 2.2 J/K/mol
- molar heat capacity at constant pressure (285.8 K): 141.3 ± 2.2 J/K/mol
- molar heat capacity at constant pressure (290.8 K): 143.5 ± 2.2 J/K/mol
- molar heat capacity at constant pressure (295.8 K): 145.7 ± 2.2 J/K/mol
- molar heat capacity at constant pressure (300.7 K): 148 ± 2.3 J/K/mol
- molar heat capacity at constant pressure (305.8 K): 149.7 ± 2.3 J/K/mol
- molar heat capacity at constant pressure (310.8 K): 151.8 ± 2.3 J/K/mol
- molar heat capacity at constant pressure (315.8 K): 154.6 ± 2.4 J/K/mol
- molar heat capacity at constant pressure (320.8 K): 156.4 ± 2.4 J/K/mol
- molar heat capacity at constant pressure (325.8 K): 158.7 ± 2.5 J/K/mol
- molar heat capacity at constant pressure (330.8 K): 161.4 ± 2.5 J/K/mol
- molar heat capacity at constant pressure (335.8 K): 163.8 ± 2.6 J/K/mol
- molar heat capacity at constant pressure (340.8 K): 166.3 ± 2.6 J/K/mol
- molar heat capacity at constant pressure (345.8 K): 168.6 ± 2.6 J/K/mol
- molar heat capacity at constant pressure (350.8 K): 171.1 ± 2.7 J/K/mol
- molar heat capacity at constant pressure (355.8 K): 173.4 ± 2.7 J/K/mol
- molar heat capacity at constant pressure (360.8 K): 175.5 ± 2.7 J/K/mol
- molar heat capacity at constant pressure (365.7 K): 177.8 ± 2.7 J/K/mol
- molar heat capacity at constant pressure (370.7 K): 180 ± 2.8 J/K/mol
- molar heat capacity at constant pressure (375.7 K): 182 ± 2.8 J/K/mol
- molar heat capacity at constant pressure (380.8 K): 184.4 ± 2.8 J/K/mol
- molar heat capacity at constant pressure (385.8 K): 186.7 ± 2.9 J/K/mol
- molar heat capacity at constant pressure (390.8 K): 188.9 ± 2.9 J/K/mol
- molar heat capacity at constant pressure (395.8 K): 191 ± 3 J/K/mol
- molar heat capacity at constant pressure (400.8 K): 193.1 ± 3 J/K/mol
- molar heat capacity at constant pressure (405.8 K): 195.1 ± 3 J/K/mol
- molar heat capacity at constant pressure (410.8 K): 197 ± 3.1 J/K/mol
- molar heat capacity at constant pressure (415.8 K): 198.7 ± 3.1 J/K/mol
- molar heat capacity at constant pressure (420.8 K): 200.4 ± 3.1 J/K/mol
- molar heat capacity at constant pressure (425.8 K): 202.2 ± 3.2 J/K/mol
- molar heat capacity at constant pressure (430.8 K): 204.5 ± 3.2 J/K/mol
- molar heat capacity at constant pressure (435.8 K): 207.1 ± 3.2 J/K/mol
- molar heat capacity at constant pressure (440.8 K): 209.5 ± 3.2 J/K/mol
- molar heat capacity at constant pressure (445.8 K): 211.6 ± 3.2 J/K/mol
- molar heat capacity at constant pressure (450.8 K): 213.8 ± 3.3 J/K/mol
- molar heat capacity at constant pressure (455.8 K): 215.9 ± 3.3 J/K/mol
- molar heat capacity at constant pressure (460.7 K): 218.2 ± 3.4 J/K/mol
